# Laboratory results reported in paper PMC9848257, “Design and synthesis of novel rigid dibenzo[b,f]azepines through ring closure technique as promising anticancer candidates against leukaemia and acting as selective topoisomerase II inhibitors and DNA intercalators” (Journal of Enzyme Inhibition and Medicinal Chemistry, 2023).
# How the values were obtained:
# CCRF-CEM = assay: NCI-60 one-dose screen, CCRF-CEM; format: cell-based; settings: Homo sapiens, leukaemia, single dose 10 μM, read-out: Growth inhibition %
# Method: (§1) Anti-proliferative effects of the counterparts 4a–g and 5a–g were screened against 60 human cancer cell lines, following the Developmental Therapeutics Program protocol, National Cancer Institute[35].
# (§2) The anti-tumour activity of the fourteen synthesised congeners was investigated at the NCI against a panel of 60 cancer cell lines (NCI-60 Cell One-Dose Screen). The tested dibenzo[b,f]azepine derivatives were screened at a single dose level (10 μM), Table 1.
# SR = assay: NCI-60 one-dose screen, SR; format: cell-based; settings: Homo sapiens, leukaemia, single dose 10 μM, read-out: Growth inhibition %
# Method: as §1, §2
# A549-ATCC = assay: NCI-60 one-dose screen, A549-ATCC; format: cell-based; settings: Homo sapiens, non-small cell lung cancer, single dose 10 μM, read-out: Growth inhibition %
# Method: as §1, §2
# EKVX = assay: NCI-60 one-dose screen, EKVX; format: cell-based; settings: Homo sapiens, non-small cell lung cancer, single dose 10 μM, read-out: Growth inhibition %
# Method: as §1, §2
# HOP-92 = assay: NCI-60 one-dose screen, HOP-92; format: cell-based; settings: Homo sapiens; HOP-92, non-small cell lung cancer; single dose 10 μM; read-out: Growth inhibition %
# Method: as §1, §2
# NCI-H23 = assay: NCI-60 one-dose screen, NCI-H23; format: cell-based; settings: Homo sapiens; NCI-H23, non-small cell lung cancer; single dose 10 μM; read-out: Growth inhibition %
# Method: as §1, §2
# NCI-H322M = assay: NCI-60 one-dose screen, NCI-H322M; format: cell-based; settings: Homo sapiens, non-small cell lung cancer, single dose 10 μM, read-out: Growth inhibition %
# Method: as §1, §2
# NCI-H460 = assay: NCI-60 one-dose screen, NCI-H460; format: cell-based; settings: Homo sapiens; NCI-H460, non-small cell lung cancer; single dose 10 μM; read-out: Growth inhibition %
# Method: as §1, §2
# COLO 205 = assay: NCI-60 one-dose screen, COLO 205; format: cell-based; settings: Homo sapiens; COLO 205, colon cancer; single dose 10 μM; read-out: Growth inhibition %
# Method: as §1, §2
# HCT-116 = assay: NCI-60 one-dose screen, HCT-116; format: cell-based; settings: Homo sapiens; HCT-116, colon cancer; single dose 10 μM; read-out: Growth inhibition %
# Method: as §1, §2
# HCT-15 = assay: NCI-60 one-dose screen, HCT-15; format: cell-based; settings: Homo sapiens; HCT-15, colon cancer; single dose 10 μM; read-out: Growth inhibition %
# Method: as §1, §2
# SW-620 = assay: NCI-60 one-dose screen, SW-620; format: cell-based; settings: Homo sapiens; SW-620, colon cancer; single dose 10 μM; read-out: Growth inhibition %
# Method: as §1, §2
# SF-268 = assay: NCI-60 one-dose screen, SF-268; format: cell-based; settings: Homo sapiens; SF-268, CNS cancer; single dose 10 μM; read-out: Growth inhibition %
# Method: as §1, §2
# U251 = assay: NCI-60 one-dose screen, U251; format: cell-based; settings: Homo sapiens, U-251; U251, CNS cancer; single dose 10 μM; read-out: Growth inhibition %
# Method: as §1, §2
# MALME-3M = assay: NCI-60 one-dose screen, MALME-3M; format: cell-based; settings: Homo sapiens, melanoma, single dose 10 μM, read-out: Growth inhibition %
# Method: as §1, §2
# MDA-MB-435 = assay: NCI-60 one-dose screen, MDA-MB-435; format: cell-based; settings: Homo sapiens; MDA-MB-435, melanoma; single dose 10 μM; read-out: Growth inhibition %
# Method: as §1, §2
# SK-MEL-5 = assay: NCI-60 one-dose screen, SK-MEL-5; format: cell-based; settings: Homo sapiens; SK-MEL-5, melanoma; single dose 10 μM; read-out: Growth inhibition %
# Method: as §1, §2
# UACC-257 = assay: NCI-60 one-dose screen, UACC-257; format: cell-based; settings: Homo sapiens; UACC-257, melanoma; single dose 10 μM; read-out: Growth inhibition %
# Method: as §1, §2
# IGROV1 = assay: NCI-60 one-dose screen, IGROV1; format: cell-based; settings: Homo sapiens, IGROV-1; IGROV1, ovarian cancer; single dose 10 μM; read-out: Growth inhibition %
# Method: as §1, §2
# OVCAR-3 = assay: NCI-60 one-dose screen, OVCAR-3; format: cell-based; settings: Homo sapiens; OVCAR-3, ovarian cancer; single dose 10 μM; read-out: Growth inhibition %
# Method: as §1, §2
# OVCAR-4 = assay: NCI-60 one-dose screen, OVCAR-4; format: cell-based; settings: Homo sapiens; OVCAR-4, ovarian cancer; single dose 10 μM; read-out: Growth inhibition %
# Method: as §1, §2
# OVCAR-5 = assay: NCI-60 one-dose screen, OVCAR-5; format: cell-based; settings: Homo sapiens; OVCAR-5, ovarian cancer; single dose 10 μM; read-out: Growth inhibition %
# Method: as §1, §2
# OVCAR-8 = assay: NCI-60 one-dose screen, OVCAR-8; format: cell-based; settings: Homo sapiens; OVCAR-8, ovarian cancer; single dose 10 μM; read-out: Growth inhibition %
# Method: as §1, §2
# NCI/ADR-RES = assay: NCI-60 one-dose screen, NCI/ADR-RES; format: cell-based; settings: Homo sapiens, ovarian cancer, single dose 10 μM, read-out: Growth inhibition %
# Method: as §1, §2
# ACHN = assay: NCI-60 one-dose screen, ACHN; format: cell-based; settings: Homo sapiens, renal cancer, single dose 10 μM, read-out: Growth inhibition %
# Method: as §1, §2
# CAKI-1 = assay: NCI-60 one-dose screen, CAKI-1; format: cell-based; settings: Homo sapiens; CAKI-1, renal cancer; single dose 10 μM; read-out: Growth inhibition %
# Method: as §1, §2
# RXF 393 = assay: NCI-60 one-dose screen, RXF 393; format: cell-based; settings: Homo sapiens; RXF 393, renal cancer; single dose 10 μM; read-out: Growth inhibition %
# Method: as §1, §2
# TK-10 = assay: NCI-60 one-dose screen, TK-10; format: cell-based; settings: Homo sapiens; TK-10, renal cancer; single dose 10 μM; read-out: Growth inhibition %
# Method: as §1, §2
# UO-31 = assay: NCI-60 one-dose screen, UO-31; format: cell-based; settings: Homo sapiens; UO-31, renal cancer; single dose 10 μM; read-out: Growth inhibition %
# Method: as §1, §2
# PC-3 = assay: NCI-60 one-dose screen, PC-3; format: cell-based; settings: Homo sapiens; PC-3, prostate cancer; single dose 10 μM; read-out: Growth inhibition %
# Method: as §1, §2
# DU-145 = assay: NCI-60 one-dose screen, DU-145; format: cell-based; settings: Homo sapiens; DU-145, prostate cancer; single dose 10 μM; read-out: Growth inhibition %
# Method: as §1, §2
# MCF-7 = assay: NCI-60 one-dose screen, MCF-7; format: cell-based; settings: Homo sapiens, MCF7; MCF-7, breast cancer; single dose 10 μM; read-out: Growth inhibition %
# Method: as §1, §2
# HS 578 T = assay: NCI-60 one-dose screen, HS 578 T; format: cell-based; settings: Homo sapiens, breast cancer, single dose 10 μM, read-out: Growth inhibition %
# Method: as §1, §2
# T-47D = assay: NCI-60 one-dose screen, T-47D; format: cell-based; settings: Homo sapiens, T47D, breast cancer, single dose 10 μM, read-out: Growth inhibition %
# Method: as §1, §2
Structure (SMILES),inhibition at 10 µM (CCRF-CEM),inhibition at 10 µM (SR),inhibition at 10 µM (A549-ATCC),inhibition at 10 µM (EKVX),inhibition at 10 µM (HOP-92),inhibition at 10 µM (NCI-H23),inhibition at 10 µM (NCI-H322M),inhibition at 10 µM (NCI-H460),inhibition at 10 µM (COLO 205),inhibition at 10 µM (HCT-116),inhibition at 10 µM (HCT-15),inhibition at 10 µM (SW-620),inhibition at 10 µM (SF-268),inhibition at 10 µM (MALME-3M),inhibition at 10 µM (MDA-MB-435),inhibition at 10 µM (SK-MEL-5),inhibition at 10 µM (UACC-257),inhibition at 10 µM (IGROV1),inhibition at 10 µM (OVCAR-3),inhibition at 10 µM (OVCAR-4),also measured
"O=C(NNC(=O)N1c2ccccc2C=Cc2ccccc21)c1ccccc1 [Compound 4a, N′-Benzoyl-5H-dibenzo[b,f]azepine-5-carbohydrazide]",< 10%,< 10%,< 10%,< 10%,< 10%,< 10%,< 10%,< 10%,< 10%,< 10%,< 10%,< 10%,< 10%,< 10%,< 10%,< 10%,< 10%,< 10%,< 10%,< 10%,inhibition at 10 µM (U251): < 10%; inhibition at 10 µM (OVCAR-5): < 10%; inhibition at 10 µM (OVCAR-8): < 10%; inhibition at 10 µM (NCI/ADR-RES): < 10%; inhibition at 10 µM (ACHN): < 10%; inhibition at 10 µM (CAKI-1): < 10%; inhibition at 10 µM (RXF 393): < 10%; inhibition at 10 µM (TK-10): < 10%; inhibition at 10 µM (UO-31): < 10%; inhibition at 10 µM (PC-3): < 10%; inhibition at 10 µM (DU-145): < 10%; inhibition at 10 µM (MCF-7): < 10%; inhibition at 10 µM (HS 578 T): < 10%; inhibition at 10 µM (T-47D): < 10%; melting point: 222 to 224 °C
"O=C(NNC(=O)N1c2ccccc2C=Cc2ccccc21)c1ccc(Br)cc1 [Compound 4b, N′-(4-Bromobenzoyl)-5H-dibenzo[b,f]azepine-5-carbohydrazide]",< 10%,< 10%,18.5%,< 10%,< 10%,< 10%,< 10%,< 10%,< 10%,< 10%,< 10%,11.8%,15.1%,< 10%,< 10%,< 10%,14.4%,< 10%,< 10%,< 10%,inhibition at 10 µM (U251): < 10%; inhibition at 10 µM (OVCAR-5): < 10%; inhibition at 10 µM (OVCAR-8): < 10%; inhibition at 10 µM (NCI/ADR-RES): < 10%; inhibition at 10 µM (ACHN): 14%; inhibition at 10 µM (CAKI-1): < 10%; inhibition at 10 µM (RXF 393): < 10%; inhibition at 10 µM (TK-10): < 10%; inhibition at 10 µM (UO-31): < 10%; inhibition at 10 µM (PC-3): < 10%; inhibition at 10 µM (DU-145): 19.7%; inhibition at 10 µM (MCF-7): < 10%; inhibition at 10 µM (HS 578 T): < 10%; inhibition at 10 µM (T-47D): < 10%; melting point: 237 to 239 °C
"O=C(NNC(=O)N1c2ccccc2C=Cc2ccccc21)c1ccc(Cl)cc1 [Compound 4c, N′-(4-Chlorobenzoyl)-5H-dibenzo[b,f]azepine-5-carbohydrazide]",< 10%,< 10%,< 10%,< 10%,< 10%,< 10%,< 10%,< 10%,< 10%,< 10%,< 10%,< 10%,< 10%,< 10%,< 10%,< 10%,12.6%,< 10%,< 10%,< 10%,inhibition at 10 µM (U251): < 10%; inhibition at 10 µM (OVCAR-5): < 10%; inhibition at 10 µM (OVCAR-8): < 10%; inhibition at 10 µM (NCI/ADR-RES): < 10%; inhibition at 10 µM (ACHN): 13.3%; inhibition at 10 µM (CAKI-1): < 10%; inhibition at 10 µM (RXF 393): < 10%; inhibition at 10 µM (TK-10): 13.2%; inhibition at 10 µM (UO-31): < 10%; inhibition at 10 µM (PC-3): < 10%; inhibition at 10 µM (DU-145): < 10%; inhibition at 10 µM (MCF-7): < 10%; inhibition at 10 µM (HS 578 T): < 10%; inhibition at 10 µM (T-47D): < 10%; melting point: 229 to 231 °C
"O=[N+]([O-])c1ccc(-c2nnc(N3c4ccccc4C=Cc4ccccc43)o2)cc1 [Compound 5e, 2-(5 h-Dibenzo[b,f]azepin-5-yl)-5–(4-nitrophenyl)-1,3,4-oxadiazole]",< 10%,30.1%,16.5%,< 10%,22.8%,< 10%,4.97%,1.84%,< 10%,< 10%,30.7%,< 10%,16.1%,< 10%,< 10%,13.7%,< 10%,< 10%,< 10%,21.8%,inhibition at 10 µM (OVCAR-5): < 10%; inhibition at 10 µM (OVCAR-8): 1.15%; inhibition at 10 µM (NCI/ADR-RES): < 10%; inhibition at 10 µM (ACHN): < 10%; inhibition at 10 µM (CAKI-1): 29.7%; inhibition at 10 µM (RXF 393): < 10%; inhibition at 10 µM (TK-10): < 10%; inhibition at 10 µM (UO-31): 30.7%; inhibition at 10 µM (PC-3): 24.6%; inhibition at 10 µM (DU-145): < 10%; inhibition at 10 µM (MCF-7): 17.4%; inhibition at 10 µM (HS 578 T): < 10%; inhibition at 10 µM (T-47D): 18.4%; melting point: 146 to 148 °C
